Source: patent US11951171B2, “Polypeptide EXP and its drug delivery system as well as extracellular vesicle extraction” (TIANJIN MEDICAL UNIVERSITY, priority 2019, dated 2024)

Columns and labels:
[1] = system: exosomes derived from murine myotubes(EXOmyotube), cardiac sphere cells (CDC) (EXOCDC) and human serum (EXOserum); assay: Binding efficiency with exosomes from different sources (flow cytometry)
Method: FAM-labeled CP05 or EXP was co-incubated with exosomes derived from murine myotubes(EXOmyotube), cardiac sphere cells (CDC) (EXOCDC) and human serum (EXOserum), and the binding efficiency was detected with flow cytometry. It's shown by the results that the binding efficiency of CP05 to exosomes from different sources is about 70%, and the binding efficiency of the same amount of EXP with exosomes from corresponding sources was about 90%.
Experimental example 5: Comparison on binding efficiency of EXP and exosomes from different sources. • (1) 0.06 μg FAM-labeled CP05 and 0.06 μg of different peptides were respectively mixed with 10 μg exosome from dC2C12, CDC, serum, and DPBS was used to make up a deficiency to 200 μl. • (2) The mixture was incubated for 2-4 hrs at 4° C. under rotation in vertical shaker. • (3) The binding efficiency was detected with flow cytometry.

exosomes in serum = assay: Capture of serum exosomes with His-tagged peptide coated nickel beads
From the text: (A) Nano sight was used to detect the particle size of exosomes in serum captured by CP05 and EXP. It's shown by the results that the particle size of exosomes captured by EXP was about 50 nm, whose homogeneity was higher than that of exosomes recovered by ultra separation. […] It's shown by the results that exosomes captured by EXP has typical bi-layer structure, and the size of exosomes captured by EXP was smaller than that of exosomes recovered by ultrafiltration.(D) Western blot was used to detect the marker protein capturing exosome.
Experimental example 6: Characterization and functional validation of exosome captured from serum by EXP. • (1) His-tagged EXP and CP05 (100 μg) were respectively mixed with […] beads in 200 μl binding solution at 4° C. for 1 h under rotation. • (2) 1 ml pre-centrifuged serum was added to His-EXP and His-CP05 coated nickel beads (centrifuged at 4400 g for 20 min, followed by 13000 g for 5 min), and then incubated at 4° C. for 30 min; • (3) The serum was discarded and the nonspecific binding was washed with the washing solution for 3 times, 10 min each time. • (4) […] was used to recover extracellular vesicles.
6.1 Measurement of the size of captured exosomes. • (1) […] of exosomes recovered from elution were diluted into 1 ml of PBS. • (2) Nanosight was used to detect the size distribution of captured exosomes. […]

exosomes = assay: Competitive binding of CP05 and EXP to exosomes (flow cytometry); settings: peptide alone with exosomes (FIG. 3A, first line)
Method: AF750 (APC-Cy7)-labeled CP05 and FAM-labeled CP05 or EXP were co-incubated with exosomes at ratios of 1:1 or 1:5 (mass ratio), and the binding efficiency was detected with flow cytometry. It's shown by the results that when EXP and CP05 were incubated with exosomes at the same time, EXP could compete with CP05 to combine with exosomes, thus reducing the binding efficiency of CP05 and exosomes. (A) Flow cytometry to detect the binding efficiency of EXP or CP05 to exosomes. EXO was used as negative control; EXOCP05 is the binding efficiency of CP05 (FAM, af750) separately labeled by different fluorescence labeling with exosomes. EXOEXP is the binding efficiency of FAM labeled EXP andexosomes. 1:1, 1:5, 1:10 means different mass ratios of AF750 and FAM-EXP/FAM-CP05 are respectively as 1:1, 1:5, 1:10. It's shown by the results of flow cytometryto that the binding efficiency of CP05 alone with EXO was about 70%, while that of EXP and exosomes was 91.5% (flow cytometry to chart: the first line). […] However, it's found by comparing different fluorescence CP05 molecules (flow cytometry to chart: the third line) that, the binding efficiency of EXOCP05 (AF750) remained unchanged with increasing the mass ratio of FAM-CP05. […] Different fluorescence-labeled CP05 (APC-Cy7, FAM) were co-incubated with exosomes, their binding efficiency is detected with flow cytometry. […]

[2] = system: exosomes recovered by EXP; assay: Binding efficiency of CP05 and EXP with serum exosomes recovered by EXP; settings: serum exosomes recovered by EXP (FIG. 6E)

- binding efficiency of peptide alone with EXO (exosomes): 91.5%
- binding efficiency with recovered exosomes [2]: 95.9%
Sequence: CRHKMWTVKSRL (EXP)
- binding efficiency to exosomes from serum compared with CP05 ([1]; exosomes from serum): significantly higher than that of CP05
- binding efficiency to exosomes from different sources ([1]; same amount of FAM-labeled peptide, EXOmyotube, EXOCDC, EXOserum): about 90%
- capture efficiency of exosomes in serum (exosomes in serum; FIG. 6F): 93.5%
- extraction rate of serum exosomes compared with CP05 (exosomes in serum; extraction of serum exosomes): about 2 times
